Measured values published in patent US5405839A, “Vitamin B12 derivative, preparation process thereof, and use thereof” (Teijin Limited, priority 1989, dated 1995).

Tests used:
diol dehydrase [1] = target: T1, diol dehydrase (Klebsiella oxytoca, UniProt Q59470+Q59471+Q59472); experiment: Assay of coenzyme activity (kcat) with diol dehydrase; assay type: biochemical, Klebsiella pneumoniae ATCC 8724; details: for coenzyme activity (in words): diol dehydrase; for Kcat (coenzyme activity): diol dehydrase, 1,2-propanediol substrate, 37° C., pH 8.0; method 1) or 2); for Kcat, activity relative to the vitamin B12 coenzyme (adenosylcobalamin): relative to adenosylcobalamin = 100
T1 construct: (alpha beta gamma)2 hexamer
T1 sequence (Q59470 1-554): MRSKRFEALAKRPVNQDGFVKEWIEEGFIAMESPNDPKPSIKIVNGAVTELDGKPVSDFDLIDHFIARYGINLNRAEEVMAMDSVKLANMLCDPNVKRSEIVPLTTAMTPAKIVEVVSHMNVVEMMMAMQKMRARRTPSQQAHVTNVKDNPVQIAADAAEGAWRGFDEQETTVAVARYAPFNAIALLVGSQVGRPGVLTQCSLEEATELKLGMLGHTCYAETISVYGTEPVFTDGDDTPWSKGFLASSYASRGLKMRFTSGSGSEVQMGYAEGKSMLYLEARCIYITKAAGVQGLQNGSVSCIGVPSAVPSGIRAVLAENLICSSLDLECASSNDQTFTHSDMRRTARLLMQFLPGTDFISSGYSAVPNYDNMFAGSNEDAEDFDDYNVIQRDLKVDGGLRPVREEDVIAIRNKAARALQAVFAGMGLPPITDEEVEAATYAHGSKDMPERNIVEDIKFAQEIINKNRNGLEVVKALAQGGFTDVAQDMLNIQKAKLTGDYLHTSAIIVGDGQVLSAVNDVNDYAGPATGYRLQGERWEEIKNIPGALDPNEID
T1 sequence (Q59471 1-224): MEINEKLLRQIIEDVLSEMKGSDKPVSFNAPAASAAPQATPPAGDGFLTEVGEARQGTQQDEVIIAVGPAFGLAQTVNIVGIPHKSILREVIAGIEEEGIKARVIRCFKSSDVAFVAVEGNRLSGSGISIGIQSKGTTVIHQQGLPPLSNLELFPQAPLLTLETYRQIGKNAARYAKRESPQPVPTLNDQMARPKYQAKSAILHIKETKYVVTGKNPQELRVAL
T1 sequence (Q59472 1-173): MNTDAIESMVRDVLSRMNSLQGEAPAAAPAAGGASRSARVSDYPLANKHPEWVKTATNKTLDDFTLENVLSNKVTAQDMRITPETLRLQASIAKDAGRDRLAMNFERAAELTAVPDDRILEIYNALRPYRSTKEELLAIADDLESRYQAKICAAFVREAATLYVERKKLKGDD
Procedure: The coenzyme activities of vitamin B12 derivatives prepared in Examples 1 to 10 were assayed according to the two methods shown below.
1) Assay of coenzyme activity by using 3-methyl-2-benzothiazolinonehydrazone
The assay was carried out according to the method of Toraya et al. (J. Biol. Chem., vol. 252, p. 963-970, 1977).
(§1) As the enzyme, diol dehydrase was employed. […] Diol dehydrase was highly purified from Klebsiella pneumoniae ATCC 8724 according to the method of Poznanskaya (Arch. Biochem. Biophys., vol. 194, p. 379-386, 1979) and adjusted to a solution of 0.3 Unit/ml with 0.05 M potassium phosphate buffer (pH 8.0). As the substrate of this enzyme, a 1 M aqueous 1,2-propanediol solution was employed.
(§2) In an ice-water bath, 0.1 ml of the substrate solution, 0.1 ml of 0.5 M aqueous potassium chloride solution, 0.1 ml of diol dehydrase solution, and 0.6 ml of 0.05 M potassium phosphate buffer (pH 8.0) were mixed, and to the mixture were added, in the dark, 0.1 ml of 0.2 mM vitamin B12 coenzyme (adenosylcobalamin), vitamin B12 (cyanocobalamin) or each vitamin B12 derivative prepared in Examples 1 to 10. After the mixture was incubated in the dark at 37° C. for 10 minutes, 1 ml of 0.1M potassium citrate buffer (pH 3.6) was added to stop the enzyme reaction, and then 0.5 ml of 0.1% aqueous 3-methyl-2-benzothianolinonehydrazone was added, followed by a continuation of the incubation at 37° C. for 15 minutes. To the mixture was added 1 ml of water, and the absorbance at 305 nm was measured by a Shimazu Double-beam Spectrophotometer Model UV-140-02 Model and the coenzyme activity (kcat) was calculated.
2) Assay of coenzyme activity using alcohol dehydrogenase and reduced nicotinamide adenine dinucleotide
The assay was carried out according to the method of Toraya et al. (Biochemistry, vol. 18, p. 417-426, 1979).
The diol dehydrase employed was diluted with 0.05 M potassium phosphate buffer (pH 8.0) to 0.15 Unit/ml, and 1M aqueous propanediol was used as the substrate solution. By using a 0.05 M potassium phosphate buffer (pH 8.0), 0.5 mg/ml of alcohol dehydrogenase and a 2 mM reduced nicotinamide adenine dinucleotide were prepared. To a mixture of 0.1 ml of the substrate solution, 0.1 ml of the alcohol dehydrogenase solution, 0.1 ml of the reduced nicotinamide adenine dinucleotide solution, and 0.5 ml of the 0.05 M potassium phosphate buffer (pH 8.0) was added 0.1 ml of the diol dehydrase solution. After the mixture was incubated at 37° C. for 5 minutes, there were added, in the dark, 0.1 ml of 0.2 mM vitamin B12 coenzyme (adenosylcobalamin), vitamin B12 (cyanocobalamin) or each vitamin B12 derivative prepared in Examples 1 to 10, and the coenzyme activity (kcat) was calculated by continuously monitoring the decrease in absorbance at 340 nm, by a Union Spectrophotometer SM-401.
The coenzyme activity is higher when the kcat is larger. The activity relative to the vitamin B12 coenzyme (adenosylcobalamin) is also shown in % in Table 1.

diol dehydrase [2] = target: T1, diol dehydrase; experiment: Inhibition constant (Ki) of vitamin B12 derivative against vitamin B12 coenzyme, Lineweaver-Burk plot; assay type: biochemical; details: against varied adenosylcobalamin
Procedure: as §1, §2
Namely, in the method 1) in Example 11, by adding adequately varied concentration of the vitamin B12 coenzyme (adenosylcobalamin) to a fixed concentration of each vitamin B12 derivative, the enzyme activity was respectively assayed and the inhibition constant (Ki) was determined by the Lineweaver-Burk plot. The inhibitory activity is stronger when the Ki is smaller.

diol dehydrase [3] = target: T1, diol dehydrase; experiment: Michaelis constant (Km) of vitamin B12 derivative, Lineweaver-Burk plot; assay type: biochemical, Klebsiella pneumoniae ATCC 8724
Procedure: as §1, §2
Namely, in the method 1) in Example 11, the respective enzyme activities were assayed by suitably varying the concentration of the vitamin B12 derivative, and Michaelis constant (km) was determined by the Lineweaver Burk plot. The affinity (binding ability) for the enzyme is higher when the Km is smaller.

[4] = test system: mouse leukemia L1210 cells; experiment: Viability of cultured L1210 cells on day 9 by Trypan blue staining; assay type: cell-based; details: day 9, MTX 200 nM only; 12960 min
Procedure: The mouse leukemia L1210 cells employed for this experiment were grown and maintained intraperitoneally in DBA mice, taken out together with ascites and aseptically cultured as adapted for RPMI-1640 medium for animal cell culture supplemented with fetal bovine serum (5 v/v %) and ethanolamine (1.2 mg/liter), but devoid of vitamin B12 (cyanocobalamin). Also, 100,000 units of penicillin and 100 mg of streptomycin were added as the antimicrobial agent, per liter of this medium. The L1210 cells grown and adapted in vitro were further adapted to the above-mentioned medium containing 7.0 g/liter of bovine serum albumin in place of the fetal bovine serum, following the method of Fujii et al. (J. Biol. Chem., vol. 256, p. 10329-10334, 1981), and then used for experiment.
To examine the L1210 growth inhibitory activities of the vitamin B12 derivatives synthesized in Examples 2 and 5, first L1210 cells adapted to albumin were inoculated at a density of 5×10^4 cells/ml into the same medium containing folic acid at 10 μM concentration, and a preculture was carried out under a humidified atmosphere of CO2 /air (5%/95%) at 37° C. for 3 days. The cells grown were centrifuged, then washed twice with the same medium containing no folic acid, to prepare an inoculum cell suspension of about 5×10^6 cells/mi. […]

Compound | coenzyme activity (in words) (diol dehydrase [1]) | Ki (diol dehydrase [2]) [µM] | Kcat (coenzyme activity) (diol dehydrase [1]) [s⁻¹] | Kcat, activity relative to the vitamin B12 coenzyme (adenosylcobalamin) (diol dehydrase [1]) [%] | Km (diol dehydrase [3]) [µM] | cells found dead (Trypan blue) [4] [%]
2-(5,6-dimethylbenzimidazolyl)ethyladenosylcobinamide phosphoric acid [Example 6] | no coenzyme activity | 52 |  |  |  | 
3-(5,6-dimethylbenzimidazolyl)propyladenosylcobinamide phosphoric acid [Example 7] |  |  | 199 | 59 | 0.82 | 
3-imidazolylpropyladenosylcobinamide phosphoric acid [Example 10] |  | 1 | 3 | 0.9 | 1.1 | 
4-(5,6-dimethylbenzimidazolyl)butyladenosylcobinamide phosphoric acid [Example 8] |  |  | 167 | 50 | 11.2 | 
6-(5,6-dimethylbenzimidazolyl)hexyladenosylcobinamide phosphoric acid [Example 9] | no coenzyme activity | 38 |  |  |  | 
CN(Cc1cnc2nc(N)nc(N)c2n1)c1ccc(C(=O)N[C@@H](CCC(=O)O)C(=O)O)cc1 [MTX, methotrexate] |  |  |  |  |  | 20
C/C1=C2/[N-][C@H]([C@H](CC(N)=O)[C@@]2(C)CCC(=O)NC[C@@H](C)OP(=O)([O-])O[C@H]2[C@@H](O)[C@@H](n3cnc4cc(C)c(C)cc43)O[C@@H]2CO)[C@]2(C)N=C(/C(C)=C3N=C(/C=C4N=C1[C@@H](CCC(N)=O)C\4(C)C)[C@@H](CCC(N)=O)[C@]\3(C)CC(N)=O)[C@@H](CCC(N)=O)[C@]2(C)CC(N)=O.[CH2-][C@H]1O[C@@H](n2cnc3c(N)ncnc32)[C@H](O)[C@@H]1O.[Co] [Vitamin B12 coenzyme, adenosylcobalamin, reference compound] |  |  | 337 | 100 | 0.8 | 
